Laboratory results published in the supplement of paper PMC8967900.

Assays:
Assay in all cases: selective drug sensitivity score (sDSS, relative to normal bone marrow) (sDSS (score)); higher = more potent and effective on the cell line relative to normal bone marrow cells
Conditions in all cases: 72 h
CCRF-CEM = system: CCRF-CEM
COG-LL-394h = system: COG-LL-394h
697 = system: 697
KASUMI-2 = system: KASUMI-2
MOLT-4 = system: MOLT-4
RCH-ACV = system: RCH-ACV
MHH-CALL-3 = system: MHH-CALL-3
COG-LL-319h = system: COG-LL-319h
NALM-16 = system: NALM-16
NALL-1 = system: NALL-1
PEER = system: PEER
COG-LL-317 = system: COG-LL-317
JURKAT = system: JURKAT
HAL-01 = system: HAL-01
NALM-6 = system: NALM-6
P30-OHKUBO = system: P30-OHKUBO
COG-LL-402h = system: COG-LL-402h
MOLT-14 = system: MOLT-14
RPMI-8402 = system: RPMI-8402
KOPN-8 = system: KOPN-8
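Further: ALL cell lines in 384-well plates, five doses spanning 10,000-fold, each plate scaled between vehicle and 100 µmol/L benzalkonium chloride controls, sDSS an adapted area-under-curve metric.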

SMILES | selective drug sensitivity score (CCRF-CEM) | selective drug sensitivity score (COG-LL-394h) | selective drug sensitivity score 697 | selective drug sensitivity score (KASUMI-2) | selective drug sensitivity score (MOLT-4) | selective drug sensitivity score (RCH-ACV) | selective drug sensitivity score (MHH-CALL-3) | selective drug sensitivity score (COG-LL-319h) | selective drug sensitivity score (NALM-16) | selective drug sensitivity score (NALL-1) | selective drug sensitivity score (PEER) | selective drug sensitivity score (COG-LL-317) | selective drug sensitivity score (JURKAT) | selective drug sensitivity score (HAL-01) | selective drug sensitivity score (NALM-6) | selective drug sensitivity score (P30-OHKUBO) | selective drug sensitivity score (COG-LL-402h) | selective drug sensitivity score (MOLT-14) | selective drug sensitivity score (RPMI-8402) | selective drug sensitivity score (KOPN-8)
CO[C@H]1C[C@@H]2CC[C@@H](C)[C@@](O)(O2)C(=O)C(=O)N2CCCC[C@H]2C(=O)O[C@H]([C@H](C)C[C@@H]2CC[C@@H](OP(C)(C)=O)[C@H](OC)C2)CC(=O)[C@H](C)/C=C(\C)[C@@H](O)[C@@H](OC)C(=O)[C@H](C)C[C@H](C)/C=C/C=C/C=C/1C [Ridaforolimus] (top concentration 100 nM) | 7.36 | -4.84 | 12.5 | 8.66 | -2.04 | 18.9 | 3.96 | 4.76 | -0.04 | -4.44 | 7.26 | 2.76 | 0.26 | -4.34 | -4.84 | 4.36 | 4.66 | -2.44 | -1.44 | 22.2
COc1cccc2c1C(=O)c1c(O)c3c(c(O)c1C2=O)C[C@@](O)(C(C)=O)C[C@@H]3O[C@H]1C[C@H](N)[C@H](O)[C@H](C)O1 [Daunorubicin] (top concentration 1000 nM) | 9.16 | 8.66 | 9.06 | 10.8 | 7.86 | 12.6 | 16.4 | 16.4 | -2.14 | -4.04 | -3.84 | 14.8 | 2.96 | -2.24 | 6.36 | 6.46 | 15.8 | 9.66 | 8.96 | 6.56
CO[C@H]1C[C@@H]2CC[C@@H](C)[C@@](O)(O2)C(=O)C(=O)N2CCCC[C@H]2C(=O)O[C@H]([C@H](C)C[C@@H]2CC[C@@H](OC(=O)C(C)(CO)CO)[C@H](OC)C2)CC(=O)[C@H](C)/C=C(\C)[C@@H](O)[C@@H](OC)C(=O)[C@H](C)C[C@H](C)/C=C/C=C/C=C/1C [Temsirolimus] (top concentration 100 nM) | 7.76 | -5.04 | 14.9 | 6.46 | -1.24 | 20.8 | 7.36 | 4.66 | 0.16 | -5.04 | 7.16 | 3.96 | -0.54 | -0.74 | -2.34 | 6.36 | 4.66 | -4.24 | -1.04 | 21.9
COC(=O)c1ccc2c(c1)NC(=O)/C2=C(\Nc1ccc(N(C)C(=O)CN2CCN(C)CC2)cc1)c1ccccc1 [Nintedanib] (top concentration 10000 nM) | -1.46 | 2.14 | 0.84 | -6.36 | -1.96 | 3.64 | -0.26 | 8.74 | -1.76 | -2.76 | 5.94 | -1.76 | -4.86 | 3.34 | -2.36 | -1.46 | 5.14 | 1.64 | 1.14 | -5.26
CCN(CC)C(=S)SSC(=S)N(CC)CC [Disulfiram(+CuCl2)] (top concentration 50000 nM) | -2.12 | -1.02 | -1.02 | 5.18 | -2.12 | 5.38 | 1.78 | 18.7 | -2.12 | 16.1 | -2.12 | -2.12 | -2.12 | 16.3 | -2.12 | 0.78 | -0.32 | -2.02 | -2.12 | 15.8
Cc1sc2c(c1C)C(c1ccc(Cl)cc1)=N[C@@H](CC(=O)Nc1ccc(O)cc1)c1nnc(C)n1-2 [Birabresib] (top concentration 10000 nM) | 1.22 | -0.08 | 10.6 | -9.68 | -4.68 | 12 | 14 | 13.5 | 1.52 | -3.58 | -0.08 | 9.12 | -1.98 | -0.78 | 3.72 | 7.22 | 7.12 | 1.72 | 3.72 | 11.6
